Molecular target: T1, TAS2R138 (Mus musculus, UniProt Q7TQA6)
T1 construct: endogenous in cells; host or cells: RAW264.7 murine macrophages (ATCC)
T1 sequence (Q7TQA6 1-331): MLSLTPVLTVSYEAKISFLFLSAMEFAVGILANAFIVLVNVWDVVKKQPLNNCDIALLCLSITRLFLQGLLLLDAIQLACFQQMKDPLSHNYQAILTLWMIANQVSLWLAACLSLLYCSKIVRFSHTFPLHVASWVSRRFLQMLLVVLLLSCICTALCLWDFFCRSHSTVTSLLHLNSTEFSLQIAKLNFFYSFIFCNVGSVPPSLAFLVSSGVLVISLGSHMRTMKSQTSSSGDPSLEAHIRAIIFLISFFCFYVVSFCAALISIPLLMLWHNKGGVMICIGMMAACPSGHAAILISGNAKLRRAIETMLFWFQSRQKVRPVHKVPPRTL
Test: TAS2R38/TAS2R138 inhibition experiment: TNFα secretion of RAW264.7 cells pre-treated with probenecid
Format: cell-based
Conditions: 1 mM probenecid, one hour before LPS and IFNγ, six hours
Protocol: In RAW264.7 cells, inflammation was triggered with LPS (10 ng/mL, Sigma) and IFNγ (10 U/mL, R&Dsystems) for 2 h or 6 h, depending on the experiments. PBMC were exposed to LPS (10 ng/mL) and AHL for 24 h. For TAS2R38 inhibition experiments, cells were exposed to TAS2R38 allosteric inhibitor probenecid (1 mM, Sigma) for one hour before adding AHLs and the inflammatory cocktail, without changing the media.
At the end of cell treatment, the medium was centrifuged at 300g for 5 min at 4 °C. Supernatant was frozen at − 80 °C until ELISA assays. TNFα and IL-1β ELISA kits were purchased from R&D systems and performed according to the manufacturer’s instructions. Briefly, plates were coated with a capture antibody and incubated overnight. Wells were blocked using 1% bovine serum albumin-PBS solution (Sigma), then exposed to cell supernatants at room temperature for two hours. Wells were washed and incubated with the detection antibody for an additional two hours. After thorough washing, Streptavidin-HRP solution was added for 20 min. Wells were washed, then incubated with TMB (Biolegend) solution for 20 min and the reaction was stopped using 1 M H2SO4. Absorbance was measured by a spectrometer (FLUOstar Omega; BMG Labtech) at 450 nm and the absorbance at 540 nm was subtracted.

## CCCN(CCC)S(=O)(=O)c1ccc(C(=O)O)cc1 [probenecid, reference compound]
  effect on TNFα secretion in activated cells cultured in absence of 3-oxo-C12:2-HSL: no effect
